Measured values taken from paper PMC4965013, “Open Source Drug Discovery with the Malaria Box Compound Collection for Neglected Diseases and Beyond” (PLoS Pathogens, 2016).
Where two headings read alike, the source gives them in different places.

Key:
[1] = system: P. falciparum 3D7; assay: [3H]-hypoxanthine growth inhibition, modified HCO3- or O2; assay type: cell-based; details: for IC50: Plasmodium falciparum
[2] = system: P. falciparum; assay: EC50 listed in S2 Table Metabolomics (used to set the concentration tested); assay type: cell-based; details: Plasmodium falciparum; EC50 used for Factor_XEC50 in metabolomics; read-out: EC50_nM
[3] = system: P. falciparum 3D7 trophozoites; assay: Metabolomic fingerprint profiling LC-MS; assay type: cell-based, Plasmodium falciparum; parameters: UDP-D-glucose / ADP-D-glucose: unit not given here; details: for Acetyllysine / N-acetyl-L-ornithine / N-carbamoyl-L-aspartate / NADPH / dAMP / dCMP / dTDP / dTMP / dTTP / dihydroorotate / orotate / DLH / DLS/SDL/SID / PD / PEE / PVNF / 3-phosphoglycerate / ADP-D-glucose / ATP / CDP / D-sedoheptulose-1/7-phosphate / FAD / GMP / NAD+ / NADP+ / Octoluse Bisphosphate / Pyroglutamic acid / UDP-D-glucose / UDP-D-glucuronate / UDP-N-acetyl-glucosamine / UDP / UMP / UTP / a-ketoglutarate / citrate/isocitrate / cytidine / dATP / dGMP/AMP / fumarate / glucose-1/6-phosphate / glycerate / guanine / guanosine / hypoxanthine / indole / inosine / nicotinate / ornithine / phosphoenolpyruvate / pyruvate / ribose-phosphate / sarcosine/alanine / sn-glycerol-3-phosphate / succinate/methylmalonic acid / uridine / xanthosine: S2 Table Metabolomics; for Acetyllysine: metabolite Acetyllysine; for N-acetyl-L-ornithine: metabolite N-acetyl-L-ornithine; for N-carbamoyl-L-aspartate: metabolite N-carbamoyl-L-aspartate; for NADPH: metabolite NADPH; for dAMP: metabolite dAMP; for dCMP: metabolite dCMP; for dTDP: metabolite dTDP; for dTMP: metabolite dTMP; for dTTP: metabolite dTTP; for dihydroorotate: metabolite dihydroorotate; for orotate: metabolite orotate; for DLH: peptide DLH; for DLS/SDL/SID: peptide DLS/SDL/SID; for PD: peptide PD; for PEE: peptide PEE; for PVNF: peptide PVNF; for 3-phosphoglycerate: metabolite 3-phosphoglycerate; for ADP-D-glucose: metabolite ADP-D-glucose; for ATP: metabolite ATP; for CDP: metabolite CDP; for CDP / D-sedoheptulose-1/7-phosphate / GMP / Octoluse Bisphosphate / UDP / UMP / UTP / citrate/isocitrate / dGMP/AMP / fumarate / glucose-1/6-phosphate / glycerate / guanine / guanosine / inosine / pyruvate / sarcosine/alanine / succinate/methylmalonic acid / uridine / xanthosine: change in metabolite level after compound treatment; for D-sedoheptulose-1/7-phosphate: metabolite D-sedoheptulose-1/7-phosphate; for FAD: metabolite FAD; for GMP: metabolite GMP; for NAD+: metabolite NAD+; for NADP+: metabolite NADP+; for Octoluse Bisphosphate: metabolite Octoluse Bisphosphate; for Pyroglutamic acid: metabolite Pyroglutamic acid; for UDP-D-glucose: metabolite UDP-D-glucose; for UDP-D-glucuronate: metabolite UDP-D-glucuronate; for UDP-N-acetyl-glucosamine: metabolite UDP-N-acetyl-glucosamine; for UDP: metabolite UDP; for UMP: metabolite UMP; for UTP: metabolite UTP; for a-ketoglutarate: metabolite a-ketoglutarate; for citrate/isocitrate: metabolite citrate/isocitrate; for cytidine: metabolite cytidine; for dATP: metabolite dATP; for dGMP/AMP: metabolite dGMP/AMP; for fumarate: metabolite fumarate; for glucose-1/6-phosphate: metabolite glucose-1/6-phosphate; for glycerate: metabolite glycerate; for guanine: metabolite guanine; for guanosine: metabolite guanosine; for hypoxanthine: metabolite hypoxanthine; for indole: metabolite indole; for inosine: metabolite inosine; for 2_3-Diphosphoglyceric acid / 4-phosphopantothenate / 6-phospho-D-gluconate / FMN / IMP / Pyrophosphate / Sedoheptoluse bisphosphate / cyclic-AMP / glutathione disulfide / lactate / myo-inositol: metabolite level change after treatment; for nicotinate: metabolite nicotinate; for ornithine: metabolite ornithine; for phosphoenolpyruvate: metabolite phosphoenolpyruvate; for pyruvate: metabolite pyruvate; for ribose-phosphate: metabolite ribose-phosphate; for sarcosine/alanine: metabolite sarcosine/alanine; for sn-glycerol-3-phosphate: metabolite sn-glycerol-3-phosphate; for succinate/methylmalonic acid: metabolite succinate/methylmalonic acid; for uridine: metabolite uridine; for xanthosine: metabolite xanthosine
[4] = 3D7, read-out: P. falciparum 3D7 IC50 1% O2, 1% O2 hypoxia
[5] = 3D7, read-out: P. falciparum 3D7 IC50 5% O2

CCOC(=O)c1cn(CC)c2cc(N(C)CCc3ccc(OC)c(OC)c3)c(F)cc2c1=O [MMV665977]
fold change (IC50normal/ IC50hypoxia) [1]: 4.1
IC50 [1, 4]: 85 nM
IC50 [1, 5]: 345 nM
EC50 [2]: 205 nM
Acetyllysine [3]: -0.2007
N-acetyl-L-ornithine [3]: 0.023
N-carbamoyl-L-aspartate [3]: 3.959
NADPH [3]: -0.01115
dAMP [3]: 0.7523
dCMP [3]: 0.5464
dTDP [3]: 0.1785
dTMP [3]: 0.2344
dTTP [3]: -0.3388
dihydroorotate [3]: 4.609
orotate [3]: -0.8094
DLH [3]: -0.4948
DLS/SDL/SID [3]: -0.3029
PD [3]: 0.1633
PEE [3]: -0.1468
PVNF [3]: -0.5192
3-phosphoglycerate [3]: -0.3617
ADP-D-glucose [3]: 0.08874
ATP [3]: -0.1759
CDP [3]: 0.4208
D-sedoheptulose-1/7-phosphate [3]: 0.7585
FAD [3]: 0.2291
GMP [3]: -0.3238
NAD+ [3]: 0.1079
NADP+ [3]: 0.05477
Octoluse Bisphosphate [3]: -0.07826
Pyroglutamic acid [3]: -0.2687
UDP-D-glucose [3]: 0.1563
UDP-D-glucuronate [3]: 0.07018
UDP-N-acetyl-glucosamine [3]: 0.07391
UDP [3]: 0.2133
UMP [3]: -0.8829
UTP [3]: -1.518
a-ketoglutarate [3]: -0.594
citrate/isocitrate [3]: -0.7044
cytidine [3]: 0.327
dATP [3]: 0.6974
dGMP/AMP [3]: -0.4295
fumarate [3]: 0.007291
glucose-1/6-phosphate [3]: 0.2816
glycerate [3]: -0.4808
guanine [3]: 0.3502
guanosine [3]: 0.225
hypoxanthine [3]: -0.2655
indole [3]: -0.1099
inosine [3]: 0.2015
2_3-Diphosphoglyceric acid [3]: 0.344
4-phosphopantothenate [3]: -0.03263
6-phospho-D-gluconate [3]: 0.2163
FMN [3]: 0.1874
IMP [3]: 0.1512
Pyrophosphate [3]: 0.2053
Sedoheptoluse bisphosphate [3]: 0.01379
cyclic-AMP [3]: 0.02919
glutathione disulfide [3]: 0.2163
lactate [3]: -0.4098
myo-inositol [3]: -0.567
nicotinate [3]: -0.4053
ornithine [3]: 0.1382
phosphoenolpyruvate [3]: -0.3385
pyruvate [3]: -0.6681
ribose-phosphate [3]: -0.2449
sarcosine/alanine [3]: 0.1312
sn-glycerol-3-phosphate [3]: 0.2048
succinate/methylmalonic acid [3]: -0.4008
uridine [3]: -0.5319
xanthosine [3]: -0.3168

COc1ccc(-c2nc(NC(=O)CS(=O)(=O)c3ccc(F)cc3)sc2C)cc1 [MMV665915]
fold change (IC50reduced/IC50normal) [1]: 2.4
IC50 ([1]; 3D7, read-out: P. falciparum 3D7 IC50 HCO3- (2g/L), standard media): 192 nM
IC50 ([1]; 3D7, HCO3- reduced media, read-out: P. falciparum 3D7 IC50 HCO3- reduced): 464 nM
EC50 [2]: 448 nM
Acetyllysine [3]: -0.1771
N-acetyl-L-ornithine [3]: -0.3059
N-carbamoyl-L-aspartate [3]: 0.053
NADPH [3]: 0.1215
dAMP [3]: -0.4653
dCMP [3]: -0.2866
dTDP [3]: 0.07665
dTMP [3]: 0.08902
dTTP [3]: -0.1721
dihydroorotate [3]: -0.4672
orotate [3]: -0.4189
DLH [3]: 0.071
DLS/SDL/SID [3]: -0.2498
PD [3]: -0.3229
PEE [3]: -0.02112
PVNF [3]: 0.02436
3-phosphoglycerate [3]: -0.875
ADP-D-glucose [3]: -0.2338
ATP [3]: -0.08026
CDP [3]: 0.2353
D-sedoheptulose-1/7-phosphate [3]: 0.2732
FAD [3]: -0.2366
GMP [3]: -0.6644
NAD+ [3]: -0.2604
NADP+ [3]: -0.1454
Octoluse Bisphosphate [3]: -0.3427
Pyroglutamic acid [3]: 0.2622
UDP-D-glucose [3]: -0.2684
UDP-D-glucuronate [3]: -0.1851
UDP-N-acetyl-glucosamine [3]: -0.3241
UDP [3]: 0.1227
UMP [3]: -0.7313
UTP [3]: -0.06326
a-ketoglutarate [3]: -0.1843
citrate/isocitrate [3]: 0.1306
cytidine [3]: -0.25
dATP [3]: -0.1264
dGMP/AMP [3]: -0.5258
fumarate [3]: -0.3392
glucose-1/6-phosphate [3]: -0.6162
glycerate [3]: -0.5026
guanine [3]: -0.3726
guanosine [3]: -0.4353
hypoxanthine [3]: 0.151
indole [3]: 0.2601
inosine [3]: -0.1084
2_3-Diphosphoglyceric acid [3]: -0.3692
4-phosphopantothenate [3]: -0.3105
6-phospho-D-gluconate [3]: -0.535
FMN [3]: -0.2195
IMP [3]: -0.3295
Pyrophosphate [3]: -0.0001746
Sedoheptoluse bisphosphate [3]: -0.2854
cyclic-AMP [3]: -0.3638
glutathione disulfide [3]: -0.4248
lactate [3]: -0.1885
myo-inositol [3]: -0.6665
nicotinate [3]: -0.4616
ornithine [3]: -0.3065
phosphoenolpyruvate [3]: -0.5464
pyruvate [3]: -0.3441
ribose-phosphate [3]: -0.3706
sarcosine/alanine [3]: -0.5111
sn-glycerol-3-phosphate [3]: -0.2801
succinate/methylmalonic acid [3]: -0.2666
uridine [3]: -0.2088
xanthosine [3]: -0.3176

Cc1cc(Nc2ccc(Cl)cc2)n2nc(C(F)(F)F)nc2n1 [MMV011256]
fold change (IC50normal/ IC50hypoxia) [1]: 5.0
IC50 [1, 4]: 70 nM
IC50 [1, 5]: 349 nM
EC50 [2]: 212 nM
Acetyllysine [3]: -0.5963
N-acetyl-L-ornithine [3]: -0.507
N-carbamoyl-L-aspartate [3]: 4.681
NADPH [3]: 1.178
dAMP [3]: -1.417
dCMP [3]: 0.2248
dTDP [3]: -0.9712
dTMP [3]: -0.998
dTTP [3]: -0.8663
dihydroorotate [3]: 5.399
orotate [3]: -0.2345
DLH [3]: -0.3185
DLS/SDL/SID [3]: -0.4128
PD [3]: 0.2516
PEE [3]: -0.4695
PVNF [3]: -1.475
3-phosphoglycerate [3]: 0.08815
ADP-D-glucose [3]: 0.5309
ATP [3]: -0.05125
CDP [3]: -0.6896
D-sedoheptulose-1/7-phosphate [3]: 0.1853
FAD [3]: 0.084
GMP [3]: 0.2583
NAD+ [3]: 0.00935
NADP+ [3]: 0.5726
Octoluse Bisphosphate [3]: 0.02106
Pyroglutamic acid [3]: -0.3979
UDP-D-glucose [3]: 0.01111
UDP-D-glucuronate [3]: -0.02444
UDP-N-acetyl-glucosamine [3]: -0.1642
UDP [3]: -0.997
UMP [3]: -0.7924
UTP [3]: -1.308
a-ketoglutarate [3]: -0.5125
citrate/isocitrate [3]: -0.4219
cytidine [3]: -0.1943
dATP [3]: 0.3626
dGMP/AMP [3]: 0.01292
fumarate [3]: -0.2283
glucose-1/6-phosphate [3]: -0.259
glycerate [3]: -0.6701
guanine [3]: 0.06677
guanosine [3]: 0.3651
hypoxanthine [3]: -0.6973
indole [3]: -0.3061
inosine [3]: -0.4425
2_3-Diphosphoglyceric acid [3]: 0.2246
4-phosphopantothenate [3]: -0.3914
6-phospho-D-gluconate [3]: 0.1976
FMN [3]: -0.1065
IMP [3]: 0.1475
Pyrophosphate [3]: 0.2465
Sedoheptoluse bisphosphate [3]: 0.08943
cyclic-AMP [3]: -0.1063
glutathione disulfide [3]: 0.192
lactate [3]: -0.653
myo-inositol [3]: -1.111
nicotinate [3]: -0.2929
ornithine [3]: 0.09761
phosphoenolpyruvate [3]: 0.0459
pyruvate [3]: -0.6078
ribose-phosphate [3]: -0.1179
sarcosine/alanine [3]: 0.2817
sn-glycerol-3-phosphate [3]: -0.0008256
succinate/methylmalonic acid [3]: 0.03166
uridine [3]: -0.902
xanthosine [3]: 0.002012
